Experimental data from publication PMC11855827, “High-Throughput Screening of Five Compound Libraries for Anthelmintic Activity and Toxicity Leads to the Discovery of Two Flavonoid Compounds” (International Journal of Molecular Sciences, 2025).

Tested on: C. elegans
Details: Table S2, C. elegans SS assay, 110 μM, averages of 4 data points

SMILES | Percentage of motility inhibition 0 h [%] | Percentage of motility inhibition 24 h [%]
CC(C)=CCc1c(O)ccc(-c2coc3cc(O)cc(O)c3c2=O)c1O [Licoisoflavone A] | 0 | 10
CC1(C)[C@@H](O[C@@H]2O[C@H](C(=O)O)[C@@H](O)[C@H](O)[C@H]2O[C@@H]2O[C@H](C(=O)O)[C@@H](O)[C@H](O)[C@H]2O)CC[C@]2(C)[C@H]3C(=O)C=C4[C@@H]5C[C@](C)(C(=O)O)CC[C@]5(C)CC[C@@]4(C)[C@]3(C)CC[C@@H]12 [Licorice-saponin H2] | 0 | 14
C[C@]1(C(=O)O)CC[C@]2(C)CC[C@]3(C)C(=CC(=O)[C@@H]4[C@@]5(C)CC[C@H](O[C@@H]6O[C@H](C(=O)O)[C@@H](O)[C@H](O)[C@H]6O[C@@H]6O[C@H](C(=O)O)[C@@H](O)[C@H](O)[C@H]6O)[C@](C)(CO)[C@@H]5CC[C@]43C)[C@@H]2C1 [Licoricesaponin G2] | 2 | 10
COc1cc2c(cc1OC)[C@@H](Cc1ccc(O)c(Oc3cc4c(cc3OC)CCN(C)[C@@H]4Cc3ccc(O)cc3)c1)N(C)CC2 [Liensinine] | 34 | 8
Cc1nc(C)c(C)nc1C.Cl [Ligustrazine (hydrochloride)] | 0 | 17
C[C@@H]1O[C@@H](OC[C@H]2O[C@@H](Oc3cc(O)c4c(=O)cc(-c5ccc(O)cc5)oc4c3)[C@H](O[C@@H]3O[C@@H](C)[C@H](O)[C@@H](O)[C@H]3O)[C@@H](O)[C@@H]2O)[C@H](O)[C@H](O)[C@H]1O [Ligustroflavone] | 10 | 8
COC(=O)C1=COC(O[C@@H]2O[C@H](CO)[C@@H](O)[C@H](O)[C@H]2O)/C(=C/C(=O)O)C1CC(=O)OCCc1ccc(O)cc1 (stereo partly shown) [Ligustrosidic acid] | 3 | 24
COc1ccc(-c2cc(=O)c3c(O)cc(O[C@@H]4O[C@H](CO[C@@H]5O[C@@H](C)[C@H](O)[C@@H](O)[C@H]5O)[C@@H](O)[C@H](O)[C@H]4O)cc3o2)cc1 [Linarin] | 15 | 23
CCC[C@@H]1C[C@@H](C(=O)N[C@@H]([C@H]2O[C@H](SC)[C@H](O)[C@@H](O)[C@H]2O)[C@@H](C)O)N(C)C1.Cl.O [Lincomycin (hydrochloride hydrate)] | 1 | 0
C=C1[C@H]2C[C@H]2[C@]2(C)Cc3occ(C)c3[C@H](O)[C@@H]12 [Lindenenol] | 0 | 19
C=C1[C@H]2C[C@H]2[C@]2(C)Cc3occ(C)c3[C@H](OC(C)=O)[C@@H]12 [Linderene acetate] | 8 | 20
O=C1C[C@@H](c2ccc(O)cc2)Oc2cc(O)ccc21 [Liquiriti genin] | 44 | 28
COc1cc2c3c(c1O)-c1ccccc1C[C@@H]3N(C)CC2 [Lirinidine] | 0 | 6
O.O.O.O.O=C([O-])CC(O)(CC(=O)[O-])C(=O)[O-].[Li+].[Li+].[Li+] [Lithium citrate (tetrahydrate)] | 13 | 0
CN1[C@@H](CC(=O)c2ccccc2)CCC[C@H]1CC(=O)c1ccccc1 [Lobelanine] | 0 | 5
CN1[C@@H](CC(=O)c2ccccc2)CCC[C@H]1C[C@H](O)c1ccccc1.Cl [Lobeline (hydrochloride)] | 26 | 30
COC(=O)C1=CO[C@@H](O)[C@@H]2[C@@H](C)[C@@H](O)C[C@H]12 [Loganetin] | 0 | 2
CCn1cc(C(=O)O)c(=O)c2cc(F)c(N3CCNC(C)C3)c(F)c21.Cl (stereo not shown) [Lomefloxacin (hydrochloride)] | 39 | 0
CC[C@](C)(C#N)O[C@@H]1O[C@H](CO)[C@@H](O)[C@H](O)[C@H]1O [Lotaustralin] | 11 | 20
COc1cc2c(cc1O)CC[N+](C)(C)[C@@H]2Cc1ccc(O)cc1.[OH-] [Lotusine (hydroxide)] | 4 | 0
COc1ccc(CCC(=O)c2ccc(O)cc2)c(OC)c1 [Loureirin A] | 11 | 0

SMILES | Percentage of motility inhibition 0 h [%] | Percentage of motility inhibition 24 h [%]
COc1cc(OC)c(CCC(=O)c2ccc(O)cc2)c(OC)c1 [Loureirin B] | 10 | 0
C[C@H](CCC(=O)O)[C@H]1CC(=O)[C@@]2(C)C3=C(C(=O)C[C@]12C)[C@@]1(C)CCC(=O)C(C)(C)[C@@H]1C[C@@H]3O [Lucideric acid A] | 0 | 20
CC1(C)CC[C@]2(C(=O)O[C@@H]3O[C@H](CO)[C@@H](O)[C@H](O)[C@H]3O)CC[C@]3(C)C(=CC[C@@H]4[C@@]5(C)C[C@@H](O)[C@H](O[C@@H]6O[C@H](CO)[C@@H](O)[C@H](O)[C@H]6O)[C@@](C)(CO)[C@@H]5CC[C@]43C)[C@@H]2C1 [Lucyoside B] | 9 | 4
C=C(C)[C@@H]1CC[C@]2(C)CC[C@]3(C)[C@H](CC[C@@H]4[C@@]5(C)CC[C@H](OC(C)=O)C(C)(C)[C@@H]5CC[C@]43C)[C@@H]12 [Lupeol acetate] | 0 | 0
O=c1cc(-c2ccc(O)c(O)c2)oc2cc(O)cc(O[C@@H]3O[C@H](CO)[C@@H](O)[C@H](O)[C@H]3O)c12 [Luteolin 5‐O‐glucoside] | 8 | 0
O=C(O)[C@H]1O[C@@H](Oc2cc(O)c3c(=O)cc(-c4ccc(O)c(O)c4)oc3c2)[C@H](O)[C@@H](O)[C@@H]1O [Luteolin 7‐O‐glucuronide] | 22 | 45
O=C(O)[C@H]1O[C@@H](O[C@H]2[C@H](Oc3cc(O)c4c(=O)cc(-c5ccc(O)c(O)c5)oc4c3)O[C@H](C(=O)O)[C@@H](O)[C@@H]2O)[C@H](O)[C@@H](O)[C@@H]1O [Luteolin 7‐diglucuronide] | 20 | 7
Oc1cc(O)c2ccc(-c3ccc(O)c(O)c3)[o+]c2c1.[Cl-] [Luteolinidin (chloride)] | 29 | 8
O=C(O)[C@H]1O[C@@H](Oc2cc(-c3cc(=O)c4c(O)cc(O)cc4o3)ccc2O)[C@H](O)[C@@H](O)[C@@H]1O [Luteolin‐3‐O‐beta‐D‐glucuronide] | 0 | 26
Cl.O[C@H]1[C@H]2c3cc4c(cc3CN3CCC(=C[C@@H]1O)[C@H]23)OCO4 [Lycorine (hydrochloride)] | 15 | 0
CN[C@@H](Cc1c[nH]c2ccccc12)C(=O)O [L‐(+)‐Abrine] | 0 | 0
CN1[C@@H]2CC[C@H]1CC(OC(=O)[C@H](CO)c1ccccc1)C2.CN1[C@@H]2CC[C@H]1CC(OC(=O)[C@H](CO)c1ccccc1)C2.O=S(=O)(O)O (stereo partly shown) [L‐Hyoscyamine (sulfate)] | 18 | 9
C[C@@H]1O[C@@H](O[C@H]2[C@H](O[C@H]3CC[C@@]4(C)[C@@H](CC[C@]5(C)[C@@H]4CC=C4[C@@H]6CC(C)(C)CC[C@]6(C(=O)O[C@@H]6O[C@H](CO[C@@H]7O[C@H](CO)[C@@H](O)[C@H](O)[C@H]7O)[C@@H](O)[C@H](O)[C@H]6O)CC[C@]45C)[C@]3(C)CO)OC[C@H](O)[C@@H]2O)[C@H](O)[C@H](O[C@@H]2O[C@H](CO)[C@@H](O)[C@H](O)[C@H]2O)[C@H]1O [Macranthoidin A] | 1 | 1
C[C@@H]1O[C@@H](O[C@H]2[C@H](O[C@H]3CC[C@@]4(C)[C@@H](CC[C@]5(C)[C@@H]4CC=C4[C@@H]6CC(C)(C)CC[C@]6(C(=O)O[C@@H]6O[C@H](CO[C@@H]7O[C@H](CO)[C@@H](O)[C@H](O)[C@H]7O)[C@@H](O)[C@H](O)[C@H]6O)CC[C@]45C)[C@]3(C)CO)OC[C@H](O)[C@@H]2O)[C@H](O)[C@H](O[C@@H]2O[C@H](CO)[C@@H](O[C@@H]3O[C@H](CO)[C@@H](O)[C@H](O)[C@H]3O)[C@H](O)[C@H]2O)[C@H]1O [Macranthoidin B] | 6 | 0
O=C1N[C@@H](Cc2ccc(O)cc2)C(=O)N2CCC[C@@H]12 [Maculosin] | 0 | 0
CC(=O)O.NCc1ccc(S(N)(=O)=O)cc1 [Mafenide (Acetate)] | 21 | 10
CC(=O)[O-].CC(=O)[O-].O.O.O.O.[Mg+2] [Magnesium acetate tetrahydrate] | 2 | 0
CCOC(=O)c1c(C)n(C)c2ccc(O)cc12 [Mecarbinate] | 38 | 36
CC1(C)CC[C@]2(C(=O)O)CC[C@]3(C)C(=CC[C@@H]4[C@@]5(C)C[C@H](O)[C@H](O)[C@@](C)(C(=O)O)[C@@H]5CC[C@]43C)[C@@H]2C1 [Medicagenic acid] | 0 | 5
Cl.OC(c1cc(C(F)(F)F)nc2c(C(F)(F)F)cccc12)C1CCCCN1 (stereo not shown) [Mefloquine (hydrochloride)] | 45 | 22
